According to US6319910A, “Method for inhibiting cyclooxygenase-2 and tumor necrosis factor alpha” (Hospital for Joint Diseases, priority 1998, dated 2001):
Entries after “also recorded” stand apart in the source; their conditions may differ. Read-outs that look alike come from different tables or passages of the source.

What was measured:
[1] = tested on: RAW 264.7 cells; experiment: PGE2 production/accumulation in LPS-stimulated RAW 264.7 cells; type: cell-based, murine; conditions: for inhibition at 10 µg/mL: Mus musculus, RAW264.7, 16 h, read-out: PGE2 % Inhibition or (Increase)
Method: Murine macrophages (RAW 263.7 cells) which were grown in Dulbecco's modified eagle medium (DMEM) containing 10% fetal bovine serum, 2 mM glutamine, 50 U/ml penicillin and 50 μg/ml streptomycin, were stimulated with 100 ng/ml LPS to induce both NOS and COX-2 at 16 hr. […] The data presented in FIG. 1 represents mean±SD as examined by T test were n=3.
The effects of CMTs 1, 2, 3, 5 and 8 on PGE2 and NO accumulation in RAW 264.7 cells were further evaluated as described above for CMT-3. […]

[2] = tested on: bovine chondrocytes; experiment: PGE2 production in LPS stimulated bovine chondrocytes (radioimmunoassay); type: cell-based; conditions: FIGS. 3 and 9, words
Method: After 48 hours the medium was changed and the cells were incubated with CMT-3 or N-monomethyl arginine (NMMA) for 2 hours before stimulating them with 100 μg/ml LPS. DMSO was used as a carrier for the modulators and the DMSO concentration was maintained (<0.01% v/v) in the cultures. Equivalent amounts of DMSO was also added to the control cultures. The levels of COX-2 dependent PGE2 release was assayed after 72 hrs by radioimmunoassay. […] The data represents mean±SD which was evaluated by T test where n=3.

[3] = tested on: bovine chondrocytes; experiment: Nitrite (NO) production in LPS stimulated bovine chondrocytes; type: cell-based; conditions: FIGS. 3 and 9; LPS 100 μg/ml; words
[4] = tested on: COX-2; experiment: Expression/modification (size) of COX-2 in LPS-stimulated murine macrophages, Western blot; type: cell-based; conditions: LPS 100 ng/ml
Method: (§1) RAW 263.7 cells were grown as previously described (Amin et al, 1995b). Murine macrophages stimulated with 100 ng/ml LPS were incubated with CMT-3 or tunicamycin (a glycosylation inhibitor). […] Nitrite and PGE2 were estimated as previously described (Amin et al, 1995b). It is quite possible that CMT-3 may inhibit COX-2 and PGE2 production by post translational modification of COX-2 which may be similar to tunicamycin inhibition. The data represents the mean±SD evaluated by T test (n=3).
Murine macrophage cells were cultivated as previously described (Amin et al, 1995b). […] cells were stimulated with 100 ng/ml of LPS in the presence of CMT-3, CMT-5 and glycosylation inhibitor, tunicamycin. The cells were grown for 16 hr and harvested. The cell free extracts were prepared as previously described (Amin et al, 1995b). In FIG. 4A, 50 μg of protein was loaded in each well and run on SDS-PAGE gels and blotted onto Western blots using a specific anti COX-2 antibody as previously described (Amin et al, 1997a). The positive control is a standard COX-2. […] The size is approximately 2000 D smaller (CMT-3 form) than the native COX-2 shown as a standard. […] These experiments indicate that CMT-3 induces modification of the COX-2 protein. The SDS PAGE analysis and Western blotting of COX-2 was carried out as described above.

[5] = tested on: OA-affected cartilage; experiment: Spontaneous PGE2 release by OA-affected cartilage (ex vivo organ culture); type: cell-based, human
Method: (§2) Human osteoarthritis affected cartilage spontaneously release nitric oxide (NO) and PGE2 in the medium as previously reported (Amin et al, 1995a; 1997a). The OA-organ cultures were set up as described (Amin et al, 1995a; 1997a). Briefly, total knee articular cartilage from tibial plateau and femoral condyle were harvested from OA-affected patients. The cartilage was mixed and cut into 3-mm discs and 4-6 discs were placed in triplicate or quadruplicate, in a 24-well plate in 2.0 ml of Ham's F-12 medium supplemented with 0.2% endotoxin free human albumin, 10 mM Hepes pH 7.4 and antibiotics in the presence of various modulators, as previously described (Amin et al, 1995a; 1997a). CMT-8 was used at pharmacologically relevant concentrations in DMSO (<0.01% final concentration) as carrier. An equivalent amount of DMSO was also added in the control cultures.
(§3) The p value between control and CMT-8 treated values for PGE2≤0.1 (insignificant) whereas the p values between NMMA treated cartilage and CMT-8 treated cartilage was ≤0.001 (significant). The data are represented as mean±SD as examined by T test when n=3. Data represent±SD value as determined by Student's t test n=4. The P values described are compared with control unstimulated OA-cartilage. The data represents one of the two similar experiments. P values for PGE2 and Nitrite=^a≤0.5; ^b≤0.1; ^c≤0.05; ^d≤0.01.

[6] = tested on: OA-affected cartilage; experiment: Spontaneous nitrite/nitric oxide release by OA-affected cartilage (ex vivo organ culture); type: cell-based, human
Method: as §2, §3

[7] = tested on: TNFα; experiment: TNFα release in the medium by HEK 293 cells permanently transfected with human proTNFα (ELISA); type: cell-based; conditions: words
Method: HEK 293 cells were transfected with the proTNFα cDNA (wild) to prepare a stable cell line. […] A mutant form of proTNFα cDNA which could not be cleaved by the endogenous TNFα convertase (TACE) to release soluble TNFα was also transfected in separate human HEK 293 cells. The soluble TNFα was estimated by ELISA from the wild type and mutant transfected cells from the medium (FIG. 6).
HEK 293 cells were grown as previously described by American Type Culture Collection (ATCC). […] The HEK 293 cells were incubated with CMT-3 to examine the effects of CMT-3 on TNFα release in the medium.
HEK 293 cells were grown under the conditions previously described by ATCC. Various compounds, including CMT-3 and doxycycline/minocyclines were incubated with proTNFα transfected HEK 293 cells releasing TNFα in the medium at 16 hours. […] Soluble TNFα was estimated by ELISA from the medium.

[8] = tested on: COX-2; experiment: COX-2 expression in cells/cartilage (general statement); type: cell-based; conditions: words
[9] = tested on: NOS; experiment: NOS expression in LPS-stimulated murine macrophages; type: cell-based; conditions: FIG. 2; LPS 100 ng/ml; words
Method: as §1

[10] = tested on: iNOS mRNA; conditions: Amin et al, 1997b; words; cited from earlier work
[11] = words; cited from earlier work
[12] = tested on: NOS; conditions: previously shown; words; cited from earlier work
[13] = Experiment II, LPS 100 ng/ml, compound 10 μg/ml, 16 hours
[14] = human OA-affected cartilage, words

## NC(=O)C1=C(O)C2(O)C(=O)C3=C(O)c4c(O)cccc4CC3CC2CC1=O (stereo not drawn) [CMT-3, 6-demethyl-6-deoxy-4-dedimethylaminotetracycline]
[1]; 16 h, 10 ug/mL
  PGE2 accumulation: 8.7 ± 2.4 ng/mL
[1]; [13]
  PGE2 accumulation: 6.5 ± 0.5 ng/mL
  inhibition at 10 µg/mL: 67%
[1]; FIG. 1, CMT-3+L-NMMA, LPS 100 ng/ml, words
  Effect on L-NMMA induced PGE2 production: blocks L-NMMA induced PGE2 production
[1]; FIG. 1, LPS 100 ng/ml, 16 hours, words
  Effect on PGE2 production: blocks both NO and PGE2 production
[1]; FIG. 2, LPS 100 ng/ml, words
  Effect on PGE2 production: inhibit
[1]; Experiment I, LPS 100 ng/ml, compound 10 μg/ml, 16 hours
  inhibition at 10 µg/mL: 66%
[1]; independent of intracellular NO, words
  Effect on COX-2 activity: inhibits COX-2 activity independent of intracellular NO concentrations
[2]; LPS 100 μg/ml, 72 hrs
  Effect on PGE2 production: inhibit NO and PGE2 production
[2]
  Effect on L-NMMA induced PGE2 up-regulation: inhibits the L-NMMA induced PGE2 up-regulation
[3]
  Effect on NO production: inhibit NO and PGE2 production
[4]; FIG. 2, words
  Effect on COX-2 expression: inhibit
[4]; FIG. 4A, 16 hr, Western blot
  Decrease in size of COX-2 versus native COX-2: approximately 2000 D
[4]; FIG. 4A, 16 hr, Western blot, words
  Effect on size of COX-2: decrease in the size of COX-2
[5]; Homo sapiens, Table 2, 5 μg/ml
  inhibition at 5 µg/mL: 60%
[5]; Table 2, 5 μg/ml
  PGE2: 88.0 ± 21.4 ng/mL
[5]; [14]
  Effect on PGE2 production: significantly inhibit; also recorded: inhibits COX-2 expression and PGE2 production
[6]; Table 2, 5 μg/ml
  Nitrite: 75.0 ± 25.0 µM
[6]; [14]
  Effect on NO production: significantly inhibit; also recorded: inhibiting NO production
[7]; FIG. 7
  Effect on TNFα release in the medium: inhibits TNFα release in the medium in a dose dependent manner
[7]; FIG. 8, 16 hours
  Effect on spontaneous TNFα release: inhibit the spontaneous TNFα release
[7]; HEK 293 cells transfected with proTNFα cDNA, low levels
  Inhibition of TNFα (summary statement): inhibiting TNFα
[8]
  Effect on COX-2 expression: inhibits COX-2 expression and PGE2 production
[9]
  Effect on NOS expression: inhibit
[10]
  Effect on iNOS mRNA expression: inhibiting iNOS mRNA expression
[11]
  Antimicrobial activity: no antimicrobial activity
[12]
  NOS activity: inhibit NOS activity
